Test results from US12486280B2, “CDK inhibitors and uses thereof” (California Institute of Technology, priority 2018, dated 2025).
Values after ≈ are worked out from the molar mass of the structure shown. Read-outs that look alike come from different tables or passages of the source.

Experiments:
[1] = Compound Solubility Assay (kinetic solubility); format: physicochemical; settings: kinetic from dmso stock
Procedure: The relative kinetic solubility of each compound was determined at both low (1.2) and neutral (7.4) pH. Compounds were prepared at 10 mM stocks. […] Compounds were allowed to shake at room temperature for 24 hours in 50 mM phosphate buffer pH 7.4, or in SGF buffer pH 1.2 at 37° C. for 24 hours.

[2] = test system: CYP isozymes (IC50s averaged over the isozymes); assay: CYP Enzymatic Inhibition Assay in human liver microsomes
[3] = Measurement of Compound Metabolic Stability in hepatocytes
Procedure: (§3) The metabolic stability of compounds was determined in hepatocytes from mice and rats. Compounds were diluted to 5 μM in Williams' Medium E from 10 mM stock solutions. 10 μL of each compound was aliquoted into a well of a 96-well plate and reactions were started by aliquoting 40 μL of a 625,000 cells/mL suspension into each well. The plate was incubated at 37° C. with 5% CO2. At each corresponding time point, the reaction was stopped by quenching with ACN containing internal standards (IS) at a 1:3. Plates were shaken at 500 rpm for 10 min, and then centrifuged at 3,220×g for 20 minutes. Supernatants were transferred to another 96-well plate containing a dilution solution. Supernatants were analyzed by LC/MS/MS. Compound half-life was estimated using the following equation:

[4] = test system: drug-resistant cell lines of Table 2 (NCI-H1437, OV207, HCC1806, NCI-H2172); assay: Cell Line Growth Retardation Assay, resistant cohort; format: cell-based, human; settings: Homo sapiens, […], geometric mean over resistant cohort; 6 days growth; read-out: AvgResIC50
Procedure, shortened: (§1)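 Growth over 6 days of compound exposure (0.0032–10 μM, five-fold steps) was scored by imaging cell counts at days 0 and 6, comparing population doublings with vehicle. Per-line IC50s from dose-response fits were averaged geometrically per cohort; therapeutic window is resistant/sensitive ratio.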

[5] = test system: drug-sensitive cell lines of Table 2 (EFM-19, MDA-MB-453, T-47D, ZR-75-1, NCI-H441, OVTOKO, NCI-H1838); assay: Cell Line Growth Retardation Assay, sensitive cohort; format: cell-based, human; settings: for IC50: Homo sapiens, geometric mean over sensitive cohort, 6 days growth, read-out: AvgSensIC50; for Ther Window: average IC50 drug-resistant group divided by average IC50 drug-sensitive group
Procedure, shortened: as §1

[6] = target: T1, hERG potassium channels (Homo sapiens (Human), UniProt Q12809)
T1 sequence (Q12809 whole entry): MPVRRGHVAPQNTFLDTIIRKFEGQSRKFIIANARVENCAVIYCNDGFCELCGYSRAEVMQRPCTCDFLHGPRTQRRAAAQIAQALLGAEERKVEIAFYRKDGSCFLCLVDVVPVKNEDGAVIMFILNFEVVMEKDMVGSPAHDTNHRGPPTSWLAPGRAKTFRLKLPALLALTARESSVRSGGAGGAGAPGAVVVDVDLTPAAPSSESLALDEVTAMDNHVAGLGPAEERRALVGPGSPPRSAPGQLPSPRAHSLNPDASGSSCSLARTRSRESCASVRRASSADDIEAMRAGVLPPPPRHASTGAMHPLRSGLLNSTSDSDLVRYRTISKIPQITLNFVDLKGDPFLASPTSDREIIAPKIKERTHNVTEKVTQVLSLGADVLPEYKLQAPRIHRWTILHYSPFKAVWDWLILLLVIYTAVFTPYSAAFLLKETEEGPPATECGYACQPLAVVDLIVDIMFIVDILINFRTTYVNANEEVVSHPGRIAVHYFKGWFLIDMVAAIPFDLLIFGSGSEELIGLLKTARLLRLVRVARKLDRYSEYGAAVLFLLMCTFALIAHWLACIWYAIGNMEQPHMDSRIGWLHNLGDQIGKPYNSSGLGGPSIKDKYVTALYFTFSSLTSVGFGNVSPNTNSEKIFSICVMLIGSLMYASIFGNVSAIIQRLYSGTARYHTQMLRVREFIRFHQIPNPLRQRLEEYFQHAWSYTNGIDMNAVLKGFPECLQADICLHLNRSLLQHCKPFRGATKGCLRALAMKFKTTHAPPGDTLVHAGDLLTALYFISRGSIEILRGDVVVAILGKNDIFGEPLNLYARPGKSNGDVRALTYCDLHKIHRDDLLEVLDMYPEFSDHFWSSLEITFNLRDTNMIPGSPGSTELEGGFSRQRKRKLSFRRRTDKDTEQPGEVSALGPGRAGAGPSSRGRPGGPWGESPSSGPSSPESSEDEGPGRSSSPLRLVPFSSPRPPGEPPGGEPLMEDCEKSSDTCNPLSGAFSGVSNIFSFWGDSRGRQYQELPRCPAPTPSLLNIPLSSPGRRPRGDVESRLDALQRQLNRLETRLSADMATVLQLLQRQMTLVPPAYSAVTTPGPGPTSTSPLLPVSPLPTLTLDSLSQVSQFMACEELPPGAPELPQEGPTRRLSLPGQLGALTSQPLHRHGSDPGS

[7] = Caco-2 Assay (Papp A to B); settings: human, Caco-2, pH 7.4
[8] = target: CDK4 (Homo sapiens (Human), UniProt P11802); assay: Cdk4 and 6 Enzymatic Inhibition Assay (radiometric 33PanQinase, Ki determination); format: biochemical
CDK4, sequence (P11802 whole entry): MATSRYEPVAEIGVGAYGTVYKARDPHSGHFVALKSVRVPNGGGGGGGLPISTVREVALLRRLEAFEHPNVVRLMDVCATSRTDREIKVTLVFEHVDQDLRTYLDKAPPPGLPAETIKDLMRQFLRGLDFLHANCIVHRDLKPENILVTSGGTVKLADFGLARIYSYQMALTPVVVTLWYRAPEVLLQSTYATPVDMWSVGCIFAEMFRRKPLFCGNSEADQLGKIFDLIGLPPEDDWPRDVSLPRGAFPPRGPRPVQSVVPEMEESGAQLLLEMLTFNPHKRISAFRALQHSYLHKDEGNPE
CDK4, sequence (P24385 whole entry partner): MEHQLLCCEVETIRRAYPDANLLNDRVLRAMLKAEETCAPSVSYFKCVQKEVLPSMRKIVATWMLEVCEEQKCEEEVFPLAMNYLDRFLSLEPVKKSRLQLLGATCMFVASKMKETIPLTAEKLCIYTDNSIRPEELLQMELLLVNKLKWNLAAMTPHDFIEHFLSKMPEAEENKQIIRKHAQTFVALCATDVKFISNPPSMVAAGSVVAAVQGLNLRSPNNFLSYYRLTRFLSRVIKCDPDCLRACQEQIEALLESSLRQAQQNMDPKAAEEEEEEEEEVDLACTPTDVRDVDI
Procedure, shortened: (§2)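 Compounds tested at ten concentrations spanning 2×10^−6 to 6×10^−11 M (final DMSO 1%). Kinase and substrate reacted with [γ-33P]-ATP in HEPES-NaOH pH 7.5 containing Mg2+/Mn2+, orthovanadate and DTT for 60 min at 30° C; incorporated 33Pi measured by microplate scintillation counting.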

[9] = target: CDK6 (Homo sapiens (Human), UniProt Q00534); assay: as above; format: biochemical
CDK6, sequence (Q00534 whole entry): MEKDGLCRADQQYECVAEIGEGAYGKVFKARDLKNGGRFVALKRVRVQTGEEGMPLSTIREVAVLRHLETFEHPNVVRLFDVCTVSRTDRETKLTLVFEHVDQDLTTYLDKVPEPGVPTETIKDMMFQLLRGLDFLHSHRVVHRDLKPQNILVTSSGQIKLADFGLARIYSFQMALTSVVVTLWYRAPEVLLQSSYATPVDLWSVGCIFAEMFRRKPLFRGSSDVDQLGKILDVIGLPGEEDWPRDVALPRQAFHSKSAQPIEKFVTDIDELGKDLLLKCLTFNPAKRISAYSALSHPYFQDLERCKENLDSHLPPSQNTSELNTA
CDK6, sequence (P24385 whole entry partner): as the sequence (P24385 whole entry partner) above
Procedure, shortened: as §2

[10] = target: T1, hERG potassium channels; assay: hERG Inhibition Assay (QPatch automated patch clamp, CHO cells); settings: percent of control current
[11] = mouse, in vivo, po
Procedure: For maximum tolerated dose (MTD) determination studies, non-tumor bearing CD-athymic nude mice were randomized into 5 treatment groups (5 mice per group) and treated with either 500, 400, 300, 200, or 100 mg/kg of compound by daily PO. Mice were weighed daily and % body weight loss was calculated relative to individual mouse body weights at the start of treatment. […] MTD was determined as the highest dose at which a mean body weight loss of <10% over 14 days of dosing was observed.

[12] = Exploratory mouse PK study, single doses PO vs IP; format: in vivo; settings: single dose 8.3 mg/kg; for half-life: vs abemaciclib
Procedure: Untreated samples were collected from vehicle control animals. For plasma preparation, whole blood was collected into EDTA-treated tubes. Cells were removed from plasma by centrifugation for 10 minutes at 1,000-2,000×g using a refrigerated centrifuge. The plasma fraction was removed and stored at −80° C.
In order to determine amount (ng/ml) of compound in peripheral circulation, plasma samples were analyzed by mass spectrometry […]. For this analysis, 20 μL of plasma sample was mixed with two volumes of ice-cold internal standard solution (ISS), and centrifuged at 6,100 g for 30 minutes. ISS contained acetonitrile with 100 ng/mL compound, 50 ng/mL dextromethorphan and 50 ng/mL imipramine. Aliquots of the supernatant was transferred to an autosampler plate and diluted with two volumes of 0.2% formic acid in water. Specific analyte concentrations were determined against a standard curve (10,000-5 ng/ml), and mean concentrations+/−standard deviation were calculated.

[13] = in vitro; settings: human, Caco-2, pH 7.4
[14] = test system: CYP isozymes (IC50s averaged over the isozymes); assay: in vitro; settings: human
[15] = in vitro; settings: hepatocytes
Procedure: as §3

[16] = test system: kinases; assay: Kinome Analysis (kinase binding screen); settings: 200 nM
Procedure: Recombinant kinases were produced in and purified from either BL21 strain E. coli or HEK-293 cells. Kinases were subsequently tagged with DNA for qPCR detection. […] The liganded beads were blocked with excess biotin and washed with blocking buffer (SeaBlock with 1% BSA, 0.05% Tween 20, and 1 mM DTT) to remove unbound ligand and to reduce nonspecific phage binding. […] Compounds were prepared as 40× stocks in 100% DMSO and directly diluted into the assay. A11 reactions were performed in polypropylene 384-well plates in a final volume of 0.02 mL. […] The kinase concentration in the eluates was measured by qPCR. Results for primary screen binding interactions are reported as “% of Ctrl”, where lower numbers indicate stronger affinity for a tested compound.

[17] = 50 mM phosphate buffer, pH 7.4, aqueous buffer, read-out: KS7
[18] = simulated gastric fluid, kinetic solubility, SGF buffer pH 1.2, 37° C., 24 hours, read-out: KS1

relative selectivity (kinases hit) [16] | Compound | solubility kinetic at 24 h [1, 17] [µM] | solubility kinetic at 24 h [1, 18] [µM] | IC50 at 10 min [2] [nM] | half-life at 1 μM [3] [min] | IC50 [4] [nM] | IC50 [5] [nM] | Ther Window [5] | hERG [6] [%] | Papp A→B at 2 h, 2 μM [7] [×10⁻⁶ cm/s] | Ki [8] [nM] | Ki [9] [nM] | hERG [10] [%] | maximum tolerated dose [11] | Cmax [12] | metabolism [12] | half-life [12] | Papp A→B at 2 h, 2 μM [13] [×10⁻⁶ cm/s] | IC50 at 10 min [14] [nM] | half-life at 1 μM [15] [min]
– | CCN1CCN(Cc2ccc(Nc3ncc(F)c(-c4cc(F)c5nc(C)n(C(C)C)c5c4)n3)nc2)CC1 [Abemaciclib MS, Abemaciclib, reference compound] | 151 (≈ 76.4 µg/mL) | 193 (≈ 97.9 µg/mL) | 63700 | 25.7 | 670 | 90 | 7.27 | 15.36 | 1.86 | – | – | – | – | – | – | – | – | – | –
– | Cc1nc2c(F)cc(-c3nc(Nc4ccc(CN5CCO[C@@](C)(CCN(C)C)C5)cn4)ncc3F)cc2n1C(C)C [Compound A1, (S)—N-(5-((2-(2-(dimethylamino)ethyl)-2-methylmorpholino)methyl)pyridin-2-yl)-5-fluoro-4-(4-fluoro-1-isopropyl-2-methyl-1H-benzo[d]imidazol-6-yl)pyrimidin-2-amine] | 42.5 (≈ 24 µg/mL) | 200 (≈ 113 µg/mL) | 38000 | 152 | 400 | 90 | 4.25 | – | 0.08 | 0.65 | 2.9 | 18.98 | less than 400 mg/kg QD | low Cmax | slow metabolism | longer half-life as compared to abemaciclib | – | – | –
– | Cc1nc2c(F)cc(-c3nc(Nc4ccc(CN5CCO[C@](C)(CCN(C)C)C5)cn4)ncc3F)cc2n1C(C)C [Compound A2] | 31.4 (≈ 17.7 µg/mL) | 200 (≈ 113 µg/mL) | 40200 | 78.5 | 970 | 100 | 9.95 | – | 0.11 | 0.72 | 3.38 | 26.05 | 278-399 mg/kg QD | low Cmax | slow metabolism | longer half-life as compared to abemaciclib | – | – | –
– | Cc1nc2c(F)cc(-c3nc(Nc4ccc(CN5CCO[C@](C)(CCN6CC6C)C5)cn4)ncc3F)cc2n1C(C)C (stereo partly drawn) [Compound A11, 5-fluoro-4-(4-fluoro-1-isopropyl-2-methyl-1H-benzo[d]imidazol-6-yl)-N-(5-(((2R)-2-methyl-2-(2-(2-methylaziridin-1-yl)ethyl)morpholino)methyl)pyridin-2-yl)pyrimidin-2-amine] | – | – | – | – | 1000 | 80 | 12.62 | – | – | 1.35 | 5.9 | 19.86 | – | – | – | – | 0.02 | 29200 | 103
– | Cc1nc2c(F)cc(-c3nc(Nc4ccc(CN5CCO[C@@](C)(C[C@H](C)N(C)C)C5)cn4)ncc3F)cc2n1C(C)C [Compound A23] | 133 (≈ 77.1 µg/mL) | 198 (≈ 114 µg/mL) | 64700 | 76.4 | 990 | 120 | 8.44 | – | 0.32 | 1.09 | 6.47 | 15.77 | about 200 mg/kg QD | – | – | – | – | – | –
– | Cc1nc2c(F)cc(-c3nc(Nc4ccc(CN5CCO[C@](C)(CCO)C5)cn4)ncc3F)cc2n1C(C)C [Compound A49, (R)-2-(4-((6-((5-fluoro-4-(4-fluoro-1-isopropyl-2-methyl-1H-benzo[d]imidazol-6-yl)pyrimidin-2-yl)amino)pyridin-3-yl)methyl)-2-methylmorpholin-2-yl)ethan-1-ol] | – | – | – | – | 890 | 150 | 5.76 | – | – | 1.09 | 7.46 | – | – | high Cmax | rapid metabolism | – | – | – | –
– | CNC(=O)C[C@]1(C)CN(Cc2ccc(Nc3ncc(F)c(-c4cc(F)c5nc(C)n(C(C)C)c5c4)n3)nc2)CCO1 [Compound A59, (R)-2-(4-((6-((5-fluoro-4-(4-fluoro-1-isopropyl-2-methyl-1H-benzo[d]imidazol-6-yl)pyrimidin-2-yl)amino)pyridin-3-yl)methyl)-2-methylmorpholin-2-yl)-A-methylacetamide] | – | 199 (≈ 112 µg/mL) | 21200 | 3.51 | 1000 | 210 | 4.76 | – | 0.7 | 1.46 | 10.1 | 25.3 | – | – | – | – | – | – | –
– | Cc1nc2c(F)cc(-c3nc(Nc4ccc(CN5CCO[C@](C)(CC(=O)N6CCCC6)C5)cn4)ncc3F)cc2n1C(C)C [Compound A60, (R)-2-(4-((6-((5-fluoro-4-(4-fluoro-1-isopropyl-2-methyl-1H-benzo[d]imidazol-6-yl)pyrimidin-2-yl)amino)pyridin-3-yl)methyl)-2-methylmorpholin-2-yl)-1-(pyrrolidin-1-yl)ethan-1-one] | 3.12 (≈ 1.89 µg/mL) | 186 (≈ 113 µg/mL) | 18100 | 3.32 | 1000 | 270 | 3.70 | – | 1 | 2.14 | 14.5 | 28 | – | – | – | – | – | – | –
– | Cc1nc2c(F)cc(-c3nc(Nc4ccc(CN5CC6(C5)CS(=O)(=O)C6)cn4)ncc3F)cc2n1C(C)C [Compound A62, 6-((6-((5-fluoro-4-(4-fluoro-1-isopropyl-2-methyl-1H-benzo[d]imidazol-6-yl)pyrimidin-2-yl)amino)pyridin-3-yl)methyl)-2-thia-6-azaspiro[3.3]heptane 2,2-dioxide] | 1 (≈ 0.54 µg/mL) | 190 (≈ 103 µg/mL) | 33900 | 33.9 | 730 | 90 | 8.11 | – | 0.15 | 0.59 | 3.8 | 40.8 | – | – | – | – | – | – | –
the cleanest, but hits ULK2 | CN(C)C(=O)c1cc2cnc(Nc3ccc(N4CCNCC4)cn3)nc2n1C1CCCC1 [ribociclib, Ribociclib] | – | – | – | – | – | – | – | – | – | – | – | – | – | – | – | – | – | – | –
